From ChEMBL document CHEMBL2074150, “Nucleotide binding and nucleotide hydrolysis properties of the ABC transporter MRP6 (ABCC6)” (Biochemistry, 2002)
Blank lines part the entries; values can stand above or below the compound they belong to.

Legend:
Format in all cases: functional, cell membranes, Membrane
Settings in all cases: komagataella pastoris
[1] = target: T1, ATP-binding cassette sub-family C member 6 (Rattus norvegicus, UniProt O88269); experiment: TP_TRANSPORTER: inhibition of photolabeling by IAARh123 (IAARh123: 1 uM, VBL: 1000 uM) in membranes from Mrp6-expressing P. pastoris
[2] = target: T1, ATP-binding cassette sub-family C member 6; experiment: TP_TRANSPORTER: inhibition of photolabeling by IAARh123 (IAARh123: 1 uM, LTC4: 300 uM) in membranes from Mrp6-expressing P. pastoris
[3] = target: T1, ATP-binding cassette sub-family C member 6; experiment: TP_TRANSPORTER: inhibition of photolabeling by IAARh123 (IAARh123: 1 uM, K571: 1000 uM) in membranes from Mrp6-expressing P. pastoris
[4] = target: T1, ATP-binding cassette sub-family C member 6; experiment: TP_TRANSPORTER: inhibition of photolabeling by IAARh123 (IAARh123: 1 uM, VP-16: 1000 uM) in membranes from Mrp6-expressing P. pastoris
[5] = target: T1, ATP-binding cassette sub-family C member 6; experiment: TP_TRANSPORTER: inhibition of photolabeling by IAARh123 (IAARh123: 1 uM, DOX: 1000 uM) in membranes from Mrp6-expressing P. pastoris

T1 sequence (O88269 whole entry): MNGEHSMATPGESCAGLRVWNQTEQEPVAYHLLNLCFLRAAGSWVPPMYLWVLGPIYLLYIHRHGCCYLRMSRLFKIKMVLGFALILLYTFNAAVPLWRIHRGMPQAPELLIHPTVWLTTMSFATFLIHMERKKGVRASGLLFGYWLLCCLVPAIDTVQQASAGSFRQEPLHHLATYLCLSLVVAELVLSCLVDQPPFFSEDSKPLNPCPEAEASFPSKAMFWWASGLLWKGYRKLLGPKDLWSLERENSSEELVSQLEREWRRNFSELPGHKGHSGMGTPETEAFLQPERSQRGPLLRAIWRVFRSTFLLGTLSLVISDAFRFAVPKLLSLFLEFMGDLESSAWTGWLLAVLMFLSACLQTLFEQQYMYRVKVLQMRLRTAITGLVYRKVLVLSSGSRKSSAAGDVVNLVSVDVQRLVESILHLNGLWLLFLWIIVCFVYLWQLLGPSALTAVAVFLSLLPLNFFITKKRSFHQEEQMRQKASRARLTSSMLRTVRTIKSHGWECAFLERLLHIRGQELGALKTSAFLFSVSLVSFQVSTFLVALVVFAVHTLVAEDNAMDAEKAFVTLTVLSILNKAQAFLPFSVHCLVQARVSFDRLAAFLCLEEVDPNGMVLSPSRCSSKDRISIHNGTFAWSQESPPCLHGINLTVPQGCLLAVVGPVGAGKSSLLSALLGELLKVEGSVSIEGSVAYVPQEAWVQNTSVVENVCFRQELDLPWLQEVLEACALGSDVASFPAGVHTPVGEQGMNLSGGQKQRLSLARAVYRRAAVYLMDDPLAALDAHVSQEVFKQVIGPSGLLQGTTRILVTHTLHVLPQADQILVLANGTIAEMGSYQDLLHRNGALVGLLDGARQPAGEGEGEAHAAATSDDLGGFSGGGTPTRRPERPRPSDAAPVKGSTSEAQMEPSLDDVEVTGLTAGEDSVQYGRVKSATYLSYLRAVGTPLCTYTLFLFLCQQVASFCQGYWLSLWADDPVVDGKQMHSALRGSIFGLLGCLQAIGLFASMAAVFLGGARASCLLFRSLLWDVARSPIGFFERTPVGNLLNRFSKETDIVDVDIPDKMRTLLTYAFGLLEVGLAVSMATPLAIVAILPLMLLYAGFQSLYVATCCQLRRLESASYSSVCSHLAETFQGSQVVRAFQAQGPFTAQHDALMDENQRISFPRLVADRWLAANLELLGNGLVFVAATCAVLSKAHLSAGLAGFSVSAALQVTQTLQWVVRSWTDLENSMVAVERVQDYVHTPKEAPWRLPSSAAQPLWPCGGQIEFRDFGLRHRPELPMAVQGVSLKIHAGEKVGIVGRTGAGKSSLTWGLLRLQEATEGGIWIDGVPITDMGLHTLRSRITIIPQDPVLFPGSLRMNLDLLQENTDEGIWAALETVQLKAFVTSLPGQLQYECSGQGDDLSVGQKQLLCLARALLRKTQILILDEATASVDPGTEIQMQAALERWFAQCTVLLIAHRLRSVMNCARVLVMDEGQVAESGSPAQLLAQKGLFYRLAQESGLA

SMILES: CC[C@]1(O)C[C@@H]2CN(CCc3c([nH]c4ccccc34)[C@@](C(=O)OC)(c3cc4c(cc3OC)N(C)[C@H]3[C@@](O)(C(=O)OC)[C@H](OC(C)=O)[C@]5(CC)C=CCN6CC[C@]43[C@@H]65)C2)C1 [VINBLASTINE]
Activity [1]: inhibitor [(at a rough estimate) 55 % of control]

Activity [2]: is not an inhibitor [-]
SMILES: CCCCC/C=C\C\C=C/C=C/C=C/[C@@H](SC[C@@H](NC(=O)CC[C@H](N)C(=O)O)C(=O)NCC(=O)O)[C@@H](O)CCCC(=O)O [LEUKOTRIEN C4]

SMILES: CN(C)C(=O)CCSC(SCCC(=O)O)c1cccc(/C=C/c2ccc3ccc(Cl)cc3n2)c1 (stereo not given) [MK-571]
Activity [3]: inhibitor [(at a rough estimate) 60 % of control]

Activity [4]: is not an inhibitor [-]
SMILES: COc1cc([C@@H]2c3cc4c(cc3[C@@H](O[C@@H]3O[C@@H]5CO[C@@H](C)O[C@H]5[C@H](O)[C@H]3O)[C@H]3COC(=O)[C@H]23)OCO4)cc(OC)c1O [ETOPOSIDE]

SMILES: COc1cccc2c1C(=O)c1c(O)c3c(c(O)c1C2=O)C[C@@](O)(C(=O)CO)C[C@@H]3O[C@H]1C[C@H](N)[C@H](O)[C@H](C)O1 [DOXORUBICIN]
Activity [5]: inhibitor [(at a rough estimate) 55 % of control]
